Data published in article PMC11233931, “Remodeling tumor‐associated macrophage for anti‐cancer effects by rational design of irreversible inhibition of mitogen‐activated protein kinase‐activated protein kinase 2” (MedComm, 2024).

What was measured:
[1] = test system: TNF-α, IL-6 and IL-1β mRNA in THP-1 cell-line-derived macrophage; assay: RT-PCR of cytokine mRNA in LPS-stimulated THP-1 derived macrophages; format: cell-based, human; conditions: THP-1 derived macrophage; 3 h pre-treatment, LPS 100 ng/mL 3 h
Text: MK2 is recognized for inducing the production of pathological cytokines that fuel inflammation, including IL‐6, TNF‐α, and IL‐1β. These cytokines are the classic downstream target gene of MK2 and are identified as significant contributors to the risk of inflammation‐driven cancer,[34], [35], [36] such as colorectal cancer and hepatocellular carcinoma. Therefore, we assessed the transcriptional levels of these typical downstream cytokines in human monocytic THP‐1 cell‐line‐derived macrophage and the mouse RAW264.7 macrophage cell line under the influence of compound 11. […] Taken together, our findings corroborate that compound 11 effectively impedes the transcription and production of these key MK2 downstream pro‐inflammatory cytokines.
FIGURE 4 Targeting cellular MK2 signaling with irreversible inhibition by compound 11. […] (C) The inhibitory effects of compound 11 on TNF‐α and IL‐6 production in LPS‐stimulated RAW264.7 macrophages for 24 h, measured by ELISA. […]
Total RNA was extracted from cultured cells using the EZ‐press RNA Purification Kit (EZBioscience). Complementary DNA was synthesized using the ABScript III RT Master Mix for qPCR with gDNA remover (ABclonal Technology) and was quantified with primers listed in Table S5. The relative mRNA expression levels were quantified through qPCR using the SYBR green gene expression assay (ABclonal Technology).

[2] = test system: CD206 and Arg-1 expression in BMDM; assay: Flow cytometry of CD206 and Arg-1 in IL-4/IL-13 stimulated BMDM; format: cell-based, mouse; conditions: IL-4/IL-13, 48 h
Text: (§1) A previous study has reported that MK2 fostered M2‐like polarization of TAMs, driving a protumor and proangiogenic phenotype which in turn accelerates tumor progression.[21] We thus assessed the influence of compound 11 on macrophage polarization and function. Our experiments used human THP‐1 monocyte induced macrophages, mouse RAW264.7 macrophages, and mouse bone marrow‐derived macrophages (BMDM). These cells were induced into M2‐like macrophages using the classic IL‐4 and IL‐13 stimuli.
(§2) FIGURE 5 Inhibition of pro‐tumorigenic M2‐like polarization in macrophages by compound 11. (A–C) RT‐PCR analysis highlights the impact of compound 11 on MRC1 and ARG‐1 mRNA expression in various macrophage cells treated with IL‐4/IL‐13 alone or combined with compound 11 for 12 h or 24 h. (D) CD206 and Arg‐1 expression in bone marrow‐derived macrophages (BMDM) cells via flow cytometry post 48 h treatment of compound 11 and IL‐4/IL‐13. (E) The treatment effects of compound 11 in THP‐1 cells using western blot analysis. Cells were pretreated with compound 11 for 1 h and followed by IL‐4/IL‐13 treatment (30 min). (F) The influence of MK2 siRNA on MRC1 and ARG‐1 mRNA expression in THP‐1 cells by RT‐PCR analysis post‐IL‐4/IL‐13 stimulation (12 h). […] Data are shown as the mean ± SD. ^* p < 0.05; ^*** p < 0.001 versus the vehicle group, determined by unpaired t test. […]

[3] = test system: p-Hsp27 in THP-1 cells; assay: Western blot of p-Hsp27 in IL-4/IL-13 treated THP-1 cells; format: cell-based, human; conditions: 1 h pretreatment, IL-4/IL-13 30 min
Text: as §1
as §2, with “analysis.” for “analysis. Cells were pretreated with compound 11 for 1 h and followed by IL‐4/IL‐13 treatment (30 min). (F) The influence of MK2 siRNA on MRC1 and ARG‐1 mRNA expression in THP‐1 cells by RT‐PCR analysis post‐IL‐4/IL‐13 stimulation (12 h).”
(§3) After the treatment outlined in the figure legends, cells were lysed using 1× sodium dodecyl sulfate (SDS) solution. […] Protein bands were detected using an enhanced chemiluminescence detection reagent (Thermo Fisher Scientific).

[4] = test system: p-Hsp27 (Ser82) and p-MK2 (T334) in THP-1 derived macrophages; assay: Western blot of MK2 signaling in LPS-stimulated THP-1 derived macrophages; format: cell-based, human; conditions: 1 h preincubation, LPS 100 ng/mL 30 min
Description: FIGURE 4 Targeting cellular MK2 signaling with irreversible inhibition by compound 11. (A and B) RT‐PCR analysis of IL‐1β, TNF‐α, and IL‐6 expression in Lipopolysaccharides (LPS)‐stimulated THP‐1 (A) and RAW264.7 (B) Cells, with pre‐treatment of compound 11 for 3 h followed by LPS (3 h) stimulation. (C) The inhibitory effects of compound 11 on TNF‐α and IL‐6 production in LPS‐stimulated RAW264.7 macrophages for 24 h, measured by ELISA. (D and E) Compound 11, alongside CC‐99677 and PF‐3644022, suppressed MK2 pathway activation, validated through western blot analysis post‐LPS stimulation. Cells were preincubated with the specified compounds for 1 h prior to LPS stimulation (100 ng/mL, 30 min). (F) Distinguishes the mode of action between compound 11 and CC‐99677. The complex structure of a small molecule and MK2 (3R2Y) with the same parent nucleus as compound 11 is shown in cyans, and the complex structure of a small molecule and MK2 (3FYJ) with the same parent nucleus as CC‐99677 is shown in orange. (G–I) The effect of indicated inhibitor on Hsp27 phosphorylation following inhibitor washout. Cells were pretreated with indicated compounds for 1 h and then washed to remove free compound and incubated for a further indicated time before activation with LPS. In (A–C), LPS (100 ng/mL) served as the stimulation control, while untreated cells were the baseline control. The data represent as mean ± SD from triplicates, with statistical analysis conducted via one‐way analysis of variance (ANOVA) (^## p < 0.01, ^### p < 0.001 vs. stimulation control; ^***p < 0.001 vs. baseline control).
Next, the efficacy of compound 11 in cellular MK2 signaling inhibition was evaluated by examining both p‐MK2 and p‐Hsp27 at Ser82 levels, the latter being a direct downstream substrate of p‐MK2. […] We try to explore this interesting phenomenon by superimposing the complex crystal structure (3FYJ) that harboring the same skeleton as CC‐99677 (Figure 4F). […] In that way, CC‐99677 binding to MK2 kinase after pre‐incubation with cells and after LPS stimulation may cause the difference in the spatial conformation of MK2 kinase domain, which may make p38 cannot properly bind to MK2, resulting in a decrease in the phosphorylation of MK2.
as §3, with “solution. The lysates were then subjected to SDS‐polyacrylamide gel electrophoresis for separation, followed by transferring onto nitrocellulose membranes.” for “solution.”

## C=CC(=O)Nc1cc(-c2cc(-c3cc4c([nH]3)CCNC4=O)ccn2)ccc1OC(F)(F)F [compound 11]
[1]
  effect on LPS-induced TNF-α, IL-6 and IL-1 mRNA expression: significantly inhibited
[2]
  effect on expression levels of surface CD206 and Arg-1: suppress
[3]
  effect on p-Hsp27: significant inhibition
[4]
  effect on MK2 phosphorylation at T334 site: did not inhibit
  effect on phosphorylation of Hsp27 (Ser82): significantly inhibited
